Data taken from US12252524B2, “GIP/GLP1 co-agonist compounds” (Eli Lilly and Company, priority 2018, dated 2025).
Numbered stars: 1 amine (or outer) side, 2 acyl side, 3 side chain; on linkers, the order of the positions; unused ones are H or OH. Square brackets hold non-standard residues; d marks the D form. Side chains are listed from the residue outwards. Peptide text beside a SMILES is read from it. * marks the point of attachment. C20 diacid = O=C(O)CCCCCCCCCCCCCCCCCCC(=O)*; C18 diacid = O=C(O)CCCCCCCCCCCCCCCCC(=O)*; αMePhe(2-F) = C[C@](N)(Cc1ccccc1F)C(=O)O; γGlu = O=C(O)[C@H](CCC(=O)[*:2])N[*:1]; αMeL = CC(C)C[C@](C)(N)C(=O)O; αMeP = C[C@@]1(C(=O)O)CCCN1; AEEA = NCCOCCOCC(=O)O; Aib = CC(C)(N)C(=O)O

How the values were obtained:
[1] = biological target: human GLP-1 receptor (GLP-1R) (Homo sapiens, UniProt P43220); experiment: cAMP pharmacological functional assay in presence of casein, hGLP-1R; type: cell-based; details: HEK293 cells expressing hGLP-1R, 0.1% Casein, geometric mean; read-out: hGLP1R cAMP Rel EC50 nM (SEM, n)
[2] = biological target: T1, gastric inhibitory peptide receptor (GIPR) (Homo sapiens, UniProt P48546); experiment: cAMP pharmacological functional assay in presence of casein, hGIPR; type: cell-based; details: HEK293 cells expressing hGIPR, 0.1% Casein, geometric mean; read-out: hGIPR cAMP Rel EC50 nM (SEM, n)
T1 sequence (P48546 22-466): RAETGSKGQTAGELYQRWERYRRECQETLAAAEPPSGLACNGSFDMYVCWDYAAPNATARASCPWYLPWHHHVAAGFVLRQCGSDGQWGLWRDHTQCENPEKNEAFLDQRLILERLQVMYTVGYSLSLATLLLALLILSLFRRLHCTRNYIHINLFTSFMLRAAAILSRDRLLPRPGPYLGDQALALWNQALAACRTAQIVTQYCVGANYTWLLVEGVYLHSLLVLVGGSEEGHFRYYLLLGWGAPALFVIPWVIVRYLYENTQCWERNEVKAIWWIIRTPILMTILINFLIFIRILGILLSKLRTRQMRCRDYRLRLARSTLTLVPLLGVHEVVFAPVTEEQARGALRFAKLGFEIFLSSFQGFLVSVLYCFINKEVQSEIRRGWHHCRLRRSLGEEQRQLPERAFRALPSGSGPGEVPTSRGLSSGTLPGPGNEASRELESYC

Chain of human GLP-1 receptor (GLP-1R) (P43220 24-463): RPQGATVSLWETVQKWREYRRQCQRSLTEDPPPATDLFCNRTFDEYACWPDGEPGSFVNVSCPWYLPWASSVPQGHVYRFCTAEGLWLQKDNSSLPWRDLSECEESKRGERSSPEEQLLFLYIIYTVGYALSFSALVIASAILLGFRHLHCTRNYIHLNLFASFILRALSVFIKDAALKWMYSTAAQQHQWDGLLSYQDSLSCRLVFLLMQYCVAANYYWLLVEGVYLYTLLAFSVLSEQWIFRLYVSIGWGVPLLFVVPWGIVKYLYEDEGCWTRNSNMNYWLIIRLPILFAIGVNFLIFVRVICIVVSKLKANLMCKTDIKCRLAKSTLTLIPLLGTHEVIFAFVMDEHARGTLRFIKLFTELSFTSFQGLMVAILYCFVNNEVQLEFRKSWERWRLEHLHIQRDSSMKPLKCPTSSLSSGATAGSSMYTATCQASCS

Compound | EC50 [1] [nM] | EC50 [2] [nM]
CC[C@H](C)[C@H](NC(=O)[C@H](CC(C)C)NC(=O)[C@H](Cc1ccc(O)cc1)NC(=O)[C@@H](CCC(=O)O)NC(=O)[C@@H](NC(=O)[C@H](Cc1ccccc1)NC(=O)[C@@H](NC(=O)C(C)(C)NC(=O)[C@H](CCC(N)=O)NC(=O)[C@H](C)NC(=O)[C@H](CCCCNC(=O)COCCOCCNC(=O)COCCOCCNC(=O)CC[C@H](NC(=O)CC[C@H](NC(=O)CCCCCCCCCCCCCCCCCCC(=O)O)C(=O)O)C(=O)O)NC(=O)[C@H](CCC(=O)O)NC(=O)[C@H](CC(=O)O)NC(=O)[C@H](CC(C)C)NC(=O)[C@](C)(CC(C)C)NC(=O)[C@@H](NC(=O)[C@H](CO)NC(=O)[C@H](Cc1c[nH]cn1)NC(=O)[C@H](CC(=O)O)NC(=O)[C@H](CO)NC(=O)[C@@H](NC(=O)[C@](C)(Cc1ccccc1F)NC(=O)[C@@H](NC(=O)CNC(=O)[C@H](CCC(=O)O)NC(=O)C(C)(C)NC(=O)[C@@H](N)Cc1ccc(O)cc1)[C@@H](C)O)[C@@H](C)O)[C@@H](C)CC)[C@@H](C)O)[C@@H](C)CC)C(=O)N[C@@H](CCC(=O)O)C(=O)NCC(=O)NCC(=O)N1CCC[C@H]1C(=O)N[C@@H](CO)C(=O)N[C@@H](CO)C(=O)NCC(N)=O [Example 161] (H-Y[Aib]EGT[αMePhe(2-F)]TSDHSI[αMeL]LDEK([AEEA-AEEA-γGlu-γGlu-C20 diacid])AQ[Aib]TFI[dE]YLIEGGPSSG-NH2) | 4.8 | 0.254
CC[C@H](C)[C@H](NC(=O)[C@H](CC(C)C)NC(=O)[C@H](Cc1ccc(O)cc1)NC(=O)[C@@H](CCC(=O)O)NC(=O)[C@@H](NC(=O)[C@H](Cc1ccccc1)NC(=O)[C@H](CCC(=O)O)NC(=O)C(C)(C)NC(=O)[C@H](CCC(N)=O)NC(=O)[C@H](C)NC(=O)[C@H](CCC(N)=O)NC(=O)[C@H](CCC(=O)O)NC(=O)[C@H](CC(=O)O)NC(=O)[C@H](CC(C)C)NC(=O)[C@](C)(CC(C)C)NC(=O)[C@@H](NC(=O)[C@H](CO)NC(=O)[C@H](Cc1ccc(O)cc1)NC(=O)[C@H](CC(=O)O)NC(=O)[C@H](CO)NC(=O)[C@@H](NC(=O)[C@](C)(Cc1ccccc1F)NC(=O)[C@@H](NC(=O)CNC(=O)[C@H](CCC(=O)O)NC(=O)C(C)(C)NC(=O)[C@@H](N)Cc1ccc(O)cc1)[C@@H](C)O)[C@@H](C)O)[C@@H](C)CC)[C@@H](C)CC)C(=O)N[C@@H](CCC(=O)O)C(=O)NCC(=O)NCC(=O)N1CCC[C@H]1C(=O)N[C@@H](CO)C(=O)N[C@@H](CO)C(=O)NCC(=O)N[C@@H](C)C(=O)N1CCC[C@H]1C(=O)N1CCC[C@H]1C(=O)N1CCC[C@H]1C(=O)N[C@@H](CO)C(=O)N[C@@H](CS)C(N)=O [Example 279] (H-Y[Aib]EGT[αMePhe(2-F)]TSDYSI[αMeL]LDEQAQ[Aib]EFI[dE]YLIEGGPSSGAPPPSC-NH2) | 0.11 | 0.564
CC[C@H](C)[C@H](NC(=O)[C@H](CC(C)C)NC(=O)[C@H](Cc1ccc(O)cc1)NC(=O)[C@@H](CCC(=O)O)NC(=O)[C@@H](NC(=O)[C@H](Cc1ccccc1)NC(=O)[C@H](Cc1c[nH]cn1)NC(=O)C(C)(C)NC(=O)[C@H](CCC(N)=O)NC(=O)[C@H](C)NC(=O)[C@H](CCCCNC(=O)COCCOCCNC(=O)COCCOCCNC(=O)CC[C@H](NC(=O)CCCCCCCCCCCCCCCCC(=O)O)C(=O)O)NC(=O)[C@H](CCC(=O)O)NC(=O)[C@H](CC(=O)O)NC(=O)[C@H](CC(C)C)NC(=O)[C@](C)(CC(C)C)NC(=O)[C@@H](NC(=O)[C@H](CO)NC(=O)[C@H](Cc1c[nH]cn1)NC(=O)[C@H](CC(=O)O)NC(=O)[C@H](CO)NC(=O)[C@@H](NC(=O)[C@](C)(Cc1ccccc1F)NC(=O)[C@@H](NC(=O)CNC(=O)[C@H](CCC(=O)O)NC(=O)C(C)(C)NC(=O)[C@@H](N)Cc1ccc(O)cc1)[C@@H](C)O)[C@@H](C)O)[C@@H](C)CC)[C@@H](C)CC)C(=O)N[C@@H](CCC(=O)O)C(=O)NCC(=O)NCC(=O)N1CCC[C@H]1C(=O)N[C@@H](CO)C(=O)N[C@@H](CO)C(=O)NCC(=O)N[C@@H](C)C(=O)N1CCC[C@H]1C(=O)N1CCC[C@H]1C(=O)N1CCC[C@H]1C(=O)N[C@@H](CO)C(N)=O [Example 177] (H-Y[Aib]EGT[αMePhe(2-F)]TSDHSI[αMeL]LDEK([AEEA-AEEA-γGlu-C18 diacid])AQ[Aib]HFI[dE]YLIEGGPSSGAPPPS-NH2) | 6.79 | 1.4
CC[C@H](C)[C@H](NC(=O)[C@H](CC(C)C)NC(=O)[C@H](Cc1ccc(O)cc1)NC(=O)[C@H](CCC(=O)O)NC(=O)[C@@H](NC(=O)[C@H](Cc1ccccc1)NC(=O)[C@H](C)NC(=O)[C@H](CCCCN)NC(=O)[C@H](CCC(N)=O)NC(=O)[C@H](C)NC(=O)[C@H](CCCCNC(=O)COCCOCCNC(=O)COCCOCCNC(=O)CC[C@H](NC(=O)CCCCCCCCCCCCCCCCCCC(=O)O)C(=O)O)NC(=O)[C@H](CCC(=O)O)NC(=O)[C@H](CC(=O)O)NC(=O)[C@H](CC(C)C)NC(=O)[C@H](CC(C)C)NC(=O)[C@@H](NC(=O)[C@H](CO)NC(=O)[C@H](Cc1ccc(O)cc1)NC(=O)[C@H](CC(=O)O)NC(=O)[C@H](CO)NC(=O)[C@@H](NC(=O)[C@H](Cc1ccccc1)NC(=O)[C@@H](NC(=O)CNC(=O)[C@H](CCC(=O)O)NC(=O)C(C)(C)NC(=O)[C@@H](N)Cc1ccc(O)cc1)[C@@H](C)O)[C@@H](C)O)[C@@H](C)CC)[C@@H](C)CC)C(=O)N[C@@H](CCC(=O)O)C(=O)NCC(=O)NCC(=O)N1CCC[C@H]1C(=O)N[C@@H](CO)C(=O)N[C@@H](CO)C(=O)NCC(=O)N[C@@H](C)C(=O)N1CCC[C@H]1C(=O)N1CCC[C@H]1C(=O)N1CCC[C@H]1C(=O)N[C@@H](CO)C(N)=O [Example 258] (H-Y[Aib]EGTFTSDYSILLDEK([AEEA-AEEA-γGlu-C20 diacid])AQKAFIEYLIEGGPSSGAPPPS-NH2; N-terminus assumed) | 0.174 | 2.43
CC[C@H](C)[C@H](NC(=O)[C@H](CC(C)C)NC(=O)[C@H](Cc1ccc(O)cc1)NC(=O)[C@H](CCC(=O)O)NC(=O)[C@@H](NC(=O)[C@H](Cc1ccccc1)NC(=O)[C@H](C)NC(=O)[C@H](CCC(N)=O)NC(=O)[C@H](CCC(N)=O)NC(=O)[C@H](C)NC(=O)[C@H](CCCCNC(=O)COCCOCCNC(=O)COCCOCCNC(=O)CC[C@H](NC(=O)CCCCCCCCCCCCCCCCCCC(=O)O)C(=O)O)NC(=O)[C@H](CCCNC(=N)N)NC(=O)[C@H](CC(=O)O)NC(=O)[C@H](CC(C)C)NC(=O)[C@H](CC(C)C)NC(=O)[C@@H](NC(=O)[C@H](CO)NC(=O)[C@H](Cc1ccc(O)cc1)NC(=O)[C@H](CC(=O)O)NC(=O)[C@H](CO)NC(=O)[C@@H](NC(=O)[C@H](Cc1ccccc1)NC(=O)[C@@H](NC(=O)CNC(=O)[C@H](CCC(=O)O)NC(=O)[C@]1(C)CCCN1C(=O)[C@@H](N)Cc1ccc(O)cc1)[C@@H](C)O)[C@@H](C)O)[C@@H](C)CC)[C@@H](C)CC)C(=O)N[C@@H](CCC(=O)O)C(=O)NCC(=O)NCC(=O)N1CCC[C@H]1C(=O)N[C@@H](CO)C(=O)N[C@@H](CO)C(=O)NCC(=O)N[C@@H](C)C(=O)N1CCC[C@H]1C(=O)N1CCC[C@H]1C(=O)N1CCC[C@H]1C(=O)N[C@@H](CO)C(N)=O [Example 195] (H-Y[αMeP]EGTFTSDYSILLDRK([AEEA-AEEA-γGlu-C20 diacid])AQQAFIEYLIEGGPSSGAPPPS-NH2) | 0.0966 | 0.193
CC[C@H](C)[C@H](NC(=O)[C@H](CCCCN)NC(=O)[C@H](CC(=O)O)NC(=O)[C@H](CC(C)C)NC(=O)[C@H](CC(C)C)NC(=O)[C@@H](NC(=O)[C@H](CO)NC(=O)[C@H](Cc1ccc(O)cc1)NC(=O)[C@H](CC(=O)O)NC(=O)[C@H](CO)NC(=O)[C@@H](NC(=O)[C@H](Cc1ccccc1)NC(=O)[C@@H](NC(=O)CNC(=O)[C@H](CCC(=O)O)NC(=O)C(C)(C)NC(=O)[C@@H](N)Cc1ccc(O)cc1)[C@@H](C)O)[C@@H](C)O)[C@@H](C)CC)C(=O)N[C@@H](C)C(=O)N[C@@H](CCC(N)=O)C(=O)NC(C)(C)C(=O)N[C@@H](C)C(=O)N[C@@H](Cc1ccccc1)C(=O)N[C@H](C(=O)N[C@@H](CCC(=O)O)C(=O)N[C@@H](Cc1ccc(O)cc1)C(=O)N[C@@H](CC(C)C)C(=O)N[C@H](C(=O)N[C@@H](CCC(=O)O)C(=O)NCC(=O)NCC(=O)N1CCC[C@H]1C(=O)N[C@@H](CO)C(=O)N[C@@H](CO)C(=O)NCC(=O)N[C@@H](C)C(=O)N1CCC[C@H]1C(=O)N1CCC[C@H]1C(=O)N[C@@H](CCCCNC(=O)COCCOCCNC(=O)COCCOCCNC(=O)CC[C@H](NC(=O)CCCCCCCCCCCCCCCCCCC(=O)O)C(=O)O)C(=O)N[C@@H](CO)C(N)=O)[C@@H](C)CC)[C@@H](C)CC [Example 47] (H-Y[Aib]EGTFTSDYSILLDKIAQ[Aib]AFIEYLIEGGPSSGAPPK([AEEA-AEEA-γGlu-C20 diacid])S-NH2) | 0.702 | 0.287
